Earlier results, collected in publication PMC9436819 (JACC: Basic to Translational Science, 2022).

Key:
[1] = system: patients with obstructive HCM; set-up: method as in PMID 32871100; details: cited from earlier work
[2] = set-up: method as in PMID 30044681, PMID 31035291; details: cited from earlier work

Structure (SMILES): CC(C)n1c(=O)cc(N[C@@H](C)c2ccccc2)[nH]c1=O [Mavacamten]
- LV outflow tract pressure gradients [1]: reduced
- Improving exercise capacity and health status ([1]; vs placebo): superior to placebo
- Time required to reach a steady state [2]: 6 weeks
